Measurements: EP1192182B1, “PITUITARY ADENYLATE CYCLASE ACTIVATING PEPTIDE (PACAP) RECEPTOR 3 (R3) AGONISTS AND THEIR PHARMACOLOGICAL METHODS OF USE” (priority 1999, dated 2001)
Positions of bridges follow the written chain, without caps; N, C: chain ends. Non-standard residues stand in square brackets, D forms with d. Residues, ends and D or L forms follow the SMILES beside them. Nle = CCCC[C@H](N)C(=O)O

What was measured:
[1] = Intraperitoneal glucose tolerance test (IPGTT), plasma glucose; assay type: in vivo, Wistar rats; settings: plasma glucose area under the curve after IPGTT (1 g/kg glucose), % of vehicle; 1 nmol/kg peptide i.v.
Experimental: Wistar rats are fasted overnight and then anesthetized with pentobarbital. The rats were eye-bled (zero time) and the peptide ( in 1% human albumin) was injected into the tail vein. Five minutes later, 1 g/kg of glucose (in saline) was injected intraperitoneally, and the rats were eye-bled after 15, 30 and 60 minutes. Plasma glucose levels were determined using the Technicon Axon autoanalyzer, Bayer Diagnosics division of Bayer Corporation, Tarrytown NY, operated using Method No. SM4-2143F90 "Glucose".
In accordance with the protocol of example 2 above, overnight fasted Wistar rats were anesthetized with pentobarital; i.v. injected with glucose ± peptide and eye bled after 1 minute. N=12 rats/group. […] The peptide or vehicle was given i.v. followed by a glucose load given i.p. in accordance with example 3. The plasma glucose was followed over the time period indicated.
Wistar rats were fasted overnight and then anesthetized with Pentobarbital. The rats were eye-bled (zero time) and the peptide (in 1 % human albumin) was injected subcutaneously. Five minutes later, 1 g/kg of glucose (in saline) was injected intraperitoneally, and the rats were eye-bled after 30 minutes.
Plasma glucose: Data are expressed as % of vehicle of plasma glucose area under the curve after IPGTT (1 g/kg glucose) after treatment with 1 nmol/kg dose of the peptide. […] The present Inventors have shown for the first time that this is because the effects of R2 and R3 on glucose tend to cancel each other out. […] Therefore, R3-selectlvlty appears to be a desirable attribute for medicaments which are to be employed in achieving blood glucose reduction, for treatment of type 2 diabetes.

rat islets = assay: Insulin release from isolated rat islets; assay type: cell-based, Sprague-Dawley rats; settings: peptide 10nM for 2hrs, 8mM glucose; % of [insulin] in 8mM glucose alone
Experimental: Sprague Dawley rats (275-320 g) were used as the source of donor islets. Briefly, the pancreas was filled with 10 ml of cold reconstituted Liberase RI (Boehringer Manheim), harvested and incubated with additional 5 ml enzyme solution in water bath for 30 minutes. Tissue suspension was washed twice with cold 10% FBS/Hanks buffer (Gibco), resuspended in 8 ml 25% ficoll (Sigma) and then layered with 5 ml each of 23%, 20% and 11 % ficoll. The islets in the 20% layer after centrifugation were removed, washed twice with cold 10% FBS/Hank buffer and resuspended in 10% FBS/RPMI 1640 media (Sigma).
Islet insulin release: Rat islets were isolated from Sprague-Dawley rats as described in example 1 and treated with either vehicle or specified peptide (10nM) for 2hrs. Insulin concentration in the medium was measured with the Linco rat insulin RIA kit. Glucose concentration in the medium was 8mM. The data are expressed as % of [insulin] in 8mM glucose alone. No polypeptide-induced Increases in insulin concentration were observed al 3 mM glucose; thus, the insulin releasing activity of these polypeptides are glucose-dependent. It should be noted that the following Table includes data for polypeptides which are not part of the present invention.

[2] = Airway hyperresponsiveness in the primate acute asthma model; assay type: in vivo, cynomolgus monkeys (Macaca fascicularis)
Experimental: Male cynomolgus monkeys (Macaca fascicularis) used in this study were maintained at constant temperature and humidity, with a twelve hour light cycle. They were fed twice daily, except on an experimental day when food was withheld the night before the procedure. Water was available ad lib at all times.
Airway hyperresponsiveness (AHR)(baseline) was measured 1 week before the control (no treatment) antigen challenge, and again 24hrs after antigen challenge. Antigen-induced airway hyperresponsiveness was measured by a fall in the PC100 (the concentration of methacholine required to cause a 100% increase in lung resistance) at 24hr compared to baseline. After 2 weeks rest, another baseline measurement of AHR was performed. […] AHR was again measured, and the fall in PC100 with treatment was compared to that without treatment. […]
The endotracheal tube was connected to a Harvard Ventilator adjusted to deliver 30-35 breaths per minute. Airflow was measured by a Fleisch pneumotachograph and thoracic pressure was measured by a validyne pressure transducer (as the difference between the pressure at the distal end of the et tube and room pressure). […]
Antigen challenge: This was an inhalation challenge with Ascaris suum. […] 30 breaths of antigen were administered after which the acute bronchoconstriction was monitored for 15min. […]

PACAP-R3 = target: T1, PACAP-R3 (Homo sapiens, UniProt P41587); settings: literature; cited from earlier work
T1 sequence (P41587 24-438): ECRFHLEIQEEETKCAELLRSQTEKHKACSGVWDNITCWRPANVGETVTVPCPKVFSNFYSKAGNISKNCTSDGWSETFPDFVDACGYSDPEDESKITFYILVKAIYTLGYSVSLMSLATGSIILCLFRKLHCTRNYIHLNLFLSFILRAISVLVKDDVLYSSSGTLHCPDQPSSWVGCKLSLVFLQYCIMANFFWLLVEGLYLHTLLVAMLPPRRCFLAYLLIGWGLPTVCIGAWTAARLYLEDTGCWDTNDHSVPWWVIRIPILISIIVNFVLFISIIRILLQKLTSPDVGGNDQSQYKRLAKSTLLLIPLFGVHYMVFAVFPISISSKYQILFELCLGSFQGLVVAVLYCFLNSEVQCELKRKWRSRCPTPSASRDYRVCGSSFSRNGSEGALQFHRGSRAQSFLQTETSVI

[3] = test system: guinea pig tracheal smooth muscle; settings: Bolin et al 1995; US 5,677,419; cited from earlier work

## CCCC[C@H](NC(=O)[C@H](CCC(N)=O)NC(=O)[C@H](CCCCN)NC(=O)[C@H](CCCNC(=N)N)NC(=O)[C@H](CC(C)C)NC(=O)[C@H](CCCCN)NC(=O)[C@@H](NC(=O)[C@H](Cc1ccc(O)cc1)NC(=O)[C@H](CC(N)=O)NC(=O)[C@H](CCC(=O)O)NC(=O)[C@@H](NC(=O)[C@H](Cc1ccccc1)NC(=O)[C@@H](NC(=O)[C@H](C)NC(=O)[C@H](CC(=O)O)NC(=O)[C@H](CO)NC(=O)[C@H](Cc1c[nH]cn1)NC(C)=O)C(C)C)[C@@H](C)O)[C@@H](C)O)C(=O)N[C@@H](C)C(=O)N[C@@H](C)C(=O)N[C@@H](CCCCN)C(=O)N[C@H]1CCCCNC(=O)C[C@@H](C(=O)N[C@@H](CC(C)C)C(=O)N[C@@H](CCCCN)C(=O)N[C@@H](CCCCN)C(=O)NCC(=O)NCC(=O)N[C@H](C(N)=O)[C@@H](C)O)NC(=O)[C@H](CC(N)=O)NC(=O)[C@H](CC(C)C)NC(=O)[C@H](Cc2ccc(O)cc2)NC1=O [Peptide R3P0] (Ac-HSDAVFTENYTKLRKQ[Nle]AAKKYLNDLKKGGT-NH2; lactam 21-25 (inferred))
[1]
  Plasma Glucose (% of Basal) i.v.: 77 % of Basal
Rat islets
  Islet Insulin Release (% of Basal): 264 % of Basal
[2]; 0.6ug/mg aerosol 10 minutes before antigen challenge, +24hr minus baseline, N 4
  Delta log10 PC100, Mean, Treated: -0.150
[2]; 0.6ug/mg aerosol, P(Treated vs Control) 0.240
  % Inhibition of induced AHR: 54%
PACAP-R3
  PACAP-R3 selectivity: greater than 100 fold
[3]
  relaxing guinea pig tracheal smooth muscle: active
